In patent US20230322767A1, “ARYL SUBSTITUTED PYRROLO-PYRIDINONES AND THERAPEUTIC USES THEREOF” (Bayer Aktiengesellschaft, priority 2020, published 2023):
“And” between values parts separate entries of the source, which are not always exact repeats. Equal values may be shown once.

The compounds below were run against wild-type Epidermal Growth Factor Receptor (EGFR) (Homo sapiens (Human), UniProt P00533) (assay: WT-EGFR Kinase Assay (TR-FRET, 2 mM ATP)). Details: EGFR Wildtyp 2 mM ATP IC50 [mol/l] (median), median or individual measurements.
wild-type Epidermal Growth Factor Receptor (EGFR), sequence (P00533 669-1210): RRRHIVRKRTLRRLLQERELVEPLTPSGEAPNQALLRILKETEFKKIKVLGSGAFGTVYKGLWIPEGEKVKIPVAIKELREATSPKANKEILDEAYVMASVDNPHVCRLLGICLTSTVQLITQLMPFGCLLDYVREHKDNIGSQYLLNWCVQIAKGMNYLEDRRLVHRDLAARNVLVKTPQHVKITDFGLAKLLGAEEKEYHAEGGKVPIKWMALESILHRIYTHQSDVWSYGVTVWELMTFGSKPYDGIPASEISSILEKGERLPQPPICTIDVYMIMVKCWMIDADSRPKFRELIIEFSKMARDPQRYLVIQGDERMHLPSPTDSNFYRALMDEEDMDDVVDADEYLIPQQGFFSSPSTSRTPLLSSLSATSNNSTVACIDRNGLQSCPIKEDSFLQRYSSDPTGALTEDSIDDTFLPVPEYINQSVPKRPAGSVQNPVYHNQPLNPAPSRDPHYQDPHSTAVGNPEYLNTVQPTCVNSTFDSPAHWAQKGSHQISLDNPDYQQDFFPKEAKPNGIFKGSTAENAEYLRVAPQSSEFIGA
Type: biochemical
Excerpt: Inhibitory activity of compounds of the present invention against wild-type Epidermal Growth Factor Receptor (EGFR) was quantified employing the TR-FRET based EGFR assay as described in the following paragraphs.
Recombinant fusion protein of N-terminal Glutathion-S-Transferase (GST) and a fragment of human EGFR (amino acids R669 to A1210), expressed in Sf9 insect cells and purified via affinity chromatography using Glutathion Sepharose as described above, was used as kinase. As substrate for the kinase reaction the biotinylated peptide biotin-Ahx-[…] (C-terminus in amide form) was used which can be purchased e.g. form the company Biosynthan GmbH (Berlin-Buch, Germany).
For the assay 50 nl of a 100 fold concentrated solution of the test compound in DMSO was pipetted into either a black low volume 384 well microtiter plate or a black 1536 well microtiter plate (both Greiner Bio-One, Frickenhausen, Germany), 2 μL of a solution of EGFR in aqueous assay buffer [50 mM Hepes pH 7.0, 10 mM MgCl2, 1 mM dithiothreitol, 0.5 mM EGTA, 0.3 mM activated sodium ortho-vanadate, 0.005% (w/v) bovine serum albumin, 0.005% (v/v) Tween-20] were added and the mixture was incubated for 15 min at 22° C. to allow pre-binding of the test compounds to the enzyme before the start of the kinase reaction. […] The concentration of EGFR was adjusted depending of the activity of the enzyme lot and was chosen appropriate to have the assay in the linear range, typical concentration was […]. The reaction was stopped by the addition of 3 μL of a solution of HTRF detection reagents (83.3 nM streptavidine-XL665 [Cisbio Bioassays, Codolet, France] and 1.67 nM PT66-Tb-Cryptate, a terbium-cryptate labelled anti-phospho-tyrosine antibody from Cisbio Bioassays [instead of the PT66-Tb-cryptate PT66-Eu-Chelate from Perkin Elmer can also be used]) in an aqueous EDTA-solution (133.3 mM EDTA, 0.2% (w/v) bovine serum albumin in 50 mM HEPES pH 7.5).
The resulting mixture was incubated 1 h at 22° C. to allow the binding of the biotinylated phosphorylated peptide to the streptavidine-XL665 and the PT66-Tb-Cryptate. Subsequently the amount of phosphorylated substrate was evaluated by measurement of the resonance energy transfer from the PT66-Tb-Cryptate to the streptavidine-XL665. Therefore, the fluorescence emissions at 620 nm and 665 nm after excitation at 337 nm were measured in a HTRF reader, e.g. a Pherastar (BMG Labtechnologies, Offenburg, Germany) or a Viewlux (Perkin-Elmer). The ratio of the emissions at 665 nm and at 622 nm was taken as the measure for the amount of phosphorylated substrate.
For `Cn1ccc2[nH]c(-c3ccnc(NC(=O)C(CC(F)F)c4ccc(F)cc4)c3)c(-c3ccccc3)c2c1=O` (single isomer, unassigned) [Example 008, 4,4-difluoro-2-(4-fluorophenyl)-N-[4-(5-methyl-4-oxo-3-phenyl-4,5-dihydro-1H-pyrrolo[3,2-c]pyridin-2-yl)pyridin-2-yl]butanamide], the IC50 was 7.82 µM and 7.83 µM and > 20 µM (2×).
Work on `CN1CCc2[nH]c(-c3ccnc(NC(=O)C(CC(F)F)c4ccc(F)cc4)c3)c(-c3cccnc3)c2C1=O` (single isomer, unassigned) [Example 010, 4,4-difluoro-2-(4-fluorophenyl)-N-{4-[5-methyl-4-oxo-3-(pyridin-3-yl)-4,5,6,7-tetrahydro-1H-pyrrolo[3,2-c]pyridin-2-yl]pyridin-2-yl}butanamide] yielded an IC50 greater than 20 µM.
`Cn1cc(CC(F)(F)F)c2[nH]c(-c3ccnc(NC(=O)C(CC(F)F)c4ccc(F)cc4)c3)c(-c3ccc(F)cc3)c2c1=O` (single isomer, unassigned) [Example 027, 4,4-difluoro-2-(4-fluorophenyl)-N-{4-[3-(4-fluorophenyl)-5-methyl-4-oxo-7-(2,2,2-trifluoroethyl)-4,5-dihydro-1H-pyrrolo[3,2-c]pyridin-2-yl]pyridin-2-yl}butanamide] was tested, and the IC50 was greater than 20 µM.
With `Cn1cc(CC(F)(F)F)c2[nH]c(-c3ccnc(NC(=O)C(CC(F)F)c4ccc(F)cc4)c3)c(-c3ccc(F)cc3)c2c1=O` (single isomer, unassigned) [Example 028, 4,4-difluoro-2-(4-fluorophenyl)-N-{4-[3-(4-fluorophenyl)-5-methyl-4-oxo-7-(2,2,2-trifluoroethyl)-4,5-dihydro-1H-pyrrolo[3,2-c]pyridin-2-yl]pyridin-2-yl}butanamide] the IC50 was greater than 5.71 µM.
Compound `CC1(C)CNC(=O)c2c1[nH]c(-c1ccnc(NC(=O)C(CC(F)F)c3ccc(F)cc3)c1)c2-c1ccccc1` (single isomer, unassigned) [Example 044, N-[4-(7,7-dimethyl-4-oxo-3-phenyl-4,5,6,7-tetrahydro-1H-pyrrolo[3,2-c]pyridin-2-yl)pyridin-2-yl]-4,4-difluoro-2-(4-fluorophenyl)butanamide] has an IC50 greater than 20 µM.
For `CC(C(=O)Nc1cc(-c2[nH]c3c(c2-c2ccccc2)C(=O)NCC3(C)C)ccn1)c1ccc(F)cc1` (single isomer, unassigned) [Example 047, N-[4-(7,7-dimethyl-4-oxo-3-phenyl-4,5,6,7-tetrahydro-1H-pyrrolo[3,2-c]pyridin-2-yl)pyridin-2-yl]-2-(4-fluorophenyl)propanamide], the IC50 was greater than 20 µM.

Same assay, conditions: read-out: EGFR Wildtyp 2 mM ATP IC50 [mol/l] (median), median or individual measurements
With `CN1CCc2[nH]c(-c3ccnc(NC(=O)C(CC(F)F)c4ccc(F)cc4)c3)c(-c3cccnc3)c2C1=O` (single isomer, unassigned) [Example 011, 4,4-difluoro-2-(4-fluorophenyl)-N-{4-[5-methyl-4-oxo-3-(pyridin-3-yl)-4,5,6,7-tetrahydro-1H-pyrrolo[3,2-c]pyridin-2-yl]pyridin-2-yl}butanamide] the IC50 was greater than 20 µM.
`CC1(C)CNC(=O)c2c1[nH]c(-c1ccnc(NC(=O)C(CC(F)F)c3ccc(F)cc3)c1)c2-c1ccccc1` (single isomer, unassigned) [Example 045, N-[4-(7,7-dimethyl-4-oxo-3-phenyl-4,5,6,7-tetrahydro-1H-pyrrolo[3,2-c]pyridin-2-yl)pyridin-2-yl]-4,4-difluoro-2-(4-fluorophenyl)butanamide] gave an IC50 greater than 20 µM.
`CC(C(=O)Nc1cc(-c2[nH]c3c(c2-c2ccccc2)C(=O)NCC3(C)C)ccn1)c1ccc(F)cc1` (single isomer, unassigned) [Example 048, N-[4-(7,7-dimethyl-4-oxo-3-phenyl-4,5,6,7-tetrahydro-1H-pyrrolo[3,2-c]pyridin-2-yl)pyridin-2-yl]-2-(4-fluorophenyl)propanamide] gave an IC50 greater than 20 µM.
